Data from US20210355106A1, “NEW AMINO-PYRIMIDONYL-PIPERIDINYL DERIVATIVES, A PROCESS FOR THEIR PREPARATION AND PHARMACEUTICAL COMPOSITIONS CONTAINING THEM” (LES LABORATOIRES SERVIER, priority 2018, published 2021).

Legend:
USP7 = molecular target: T1, USP7 (Homo sapiens, UniProt Q93009, C315A); assay: Inhibition of USP7 by Fluorescence Intensity (FLINT) readings, Ubiquitin-Rhodamine-110 substrate; type: biochemical; conditions: 0.25 nM His-His-USP7 (aa208-560), 60 minutes at 30° C. preincubation; Ki determined from IC50 according to Cer et al.
T1 construct: 0.25 nM His-His-USP7 (aa208-560, |C315A|) was incubated with compound; His-His (N)
Method in brief: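 Kinetic rate of Rhodamine-110 release from ubiquitin substrate (50 nM or 4 μM), read every 3 min for 21 min, after 60 min, 30 °C preincubation of 0.25 nM USP7 catalytic domain C315A with compound. Bicine pH 8.0 buffer, 10% DMSO; 11-point IC50 vs DMSO and no-enzyme controls, converted to Ki.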

[1] = test system: Z138 mantle cell lymphoma tumour cell lines; assay: In vitro cytotoxicity, MTT assay; type: cell-based; conditions: Z138 cells, exposed to the test compounds for 96 hours
Method in brief: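 MTT viability read-out: after 96 hours of compound treatment, Z138 mantle cell lymphoma cells received MTT for 4 hours, and formazan production was quantified by absorbance at 540 nm.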

T1 sequence (Q93009 208-560 C315A): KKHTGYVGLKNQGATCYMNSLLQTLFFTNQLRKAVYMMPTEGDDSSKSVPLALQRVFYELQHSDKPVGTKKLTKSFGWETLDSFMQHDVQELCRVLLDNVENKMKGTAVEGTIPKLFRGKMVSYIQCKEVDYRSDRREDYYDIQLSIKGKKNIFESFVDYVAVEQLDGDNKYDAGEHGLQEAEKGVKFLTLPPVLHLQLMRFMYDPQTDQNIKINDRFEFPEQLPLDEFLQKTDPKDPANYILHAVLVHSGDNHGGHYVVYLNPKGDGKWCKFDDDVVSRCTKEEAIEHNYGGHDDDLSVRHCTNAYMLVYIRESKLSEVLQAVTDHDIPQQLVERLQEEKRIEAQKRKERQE

| Compound | Ki (USP7) [nM] | IC50 ([1]; Homo sapiens, Z-138) [nM] | IC50 [1] [nM] |
| --- | --- | --- | --- |
| Cc1ccc(-c2cc(F)c(C(=O)N3CC[C@@H](C(=O)N4CCC(O)(Cn5cnc(Oc6cccc(C(F)(F)F)c6)c(N)c5=O)CC4)[C@H](c4ccccc4)C3)s2)cn1 [Example 101, 5-amino-3-[[1-[(3R,4R)-1-[3-fluoro-5-(46-methyl-3-pyridyl)thiophene-2-carbonyl]-3-phenyl-piperidine-4-carbonyl]-4-hydroxy-4-piperidyl]methyl]-6-[3-(trifluoromethyl)phenoxy]pyrimidin-4-one] | 11 | 25.3 |  |
| Nc1c(Oc2ccccc2)ncn(CC2(O)CCN(C(=O)[C@@H]3CCN(C4(c5ccccc5F)COC4)C[C@H]3c3ccccc3)CC2)c1=O [Example 114] | 66 | 22 |  |
| Cc1ccnc(C(=O)N2CC[C@@H](C(=O)N3CCC(O)(Cn4cnc(Oc5ccc(F)cc5)c(N)c4=O)CC3)[C@H](c3ccccc3)C2)c1 [Example 94, 5-amino-6-(4-fluorophenoxy)-3-[[4-hydroxy-1-[(3R,4R)-1-(4-methylpyridine-2-carbonyl)-3-phenyl-piperidine-4-carbonyl]-4-piperidyl]methyl]pyrimidin-4-one] | 30 | 49 |  |
| COc1cc(Oc2ncn(C[C@@]3(O)CCN(C(=O)[C@@H]4CCN(Cc5nccnc5C)C[C@H]4c4ccccc4)CC3(F)F)c(=O)c2N)ccc1F [Example 219, 5-amino-3-[[(4S)-3,3-difluoro-4-hydroxy-1-[(3R,4R)-1-[(3-methylpyrazin-2-yl)methyl]-3-phenyl-piperidine-4-carbonyl]-4-piperidyl]methyl]-6-(4-fluoro-3-methoxy-phenoxy)pyrimidin-4-one] | 30.3 | 23.4 |  |
| Cc1ccc(-c2nc(C)c(C(=O)N3CC[C@@H](C(=O)N4CCC(O)(Cn5cnc(Oc6ccccc6)c(N)c5=O)CC4)[C@H](c4ccccc4)C3)s2)cn1 [Example 46, 5-amino-3-[(4-hydroxy-1-((3R,4R)-1-[4-methyl-2-(6-methylpyridin-3-yl)-1,3-thiazole-5-carbonyl]-3-phenylpiperidine-4-carbonyl)piperidin-4-yl)methyl)-6-phenoxypyrimidin-4(3H)-one] | 2.9 | 3.1 |  |
| Nc1c(Oc2ccc(F)cc2)ncn(C[C@@]2(O)CCN(C(=O)[C@@H]3CCN(Cc4cccnn4)C[C@H]3c3ccccc3)CC2(F)F)c1=O [Example 203] | 47.1 | 33 |  |
| Nc1c(Oc2ccc(F)cc2)ncn(CC2(O)CCN(C(=O)[C@@H]3CCN(C(=S)Nc4ccccc4)C[C@H]3c3ccccc3)CC2)c1=O [Example 60] | 75.9 | 128 |  |
| Nc1c(Oc2ccc(F)cc2)ncn(CC2(O)CCN(C(=O)[C@@H]3CCN(C(=O)Nc4ccc(F)cc4)C[C@H]3c3ccccc3)CC2)c1=O [Example 84, (3R,4R)-4-[4-[[5-amino-4-(4-fluorophenoxy)-6-oxo-pyrimidin-1-yl]methyl]-4-hydroxy-piperidine-1-carbonyl]-N-(4-fluorophenyl)-3-phenyl-piperidine-1-carboxamide] | 21 | 18 |  |
| Cc1nc(-c2ccc(F)cc2)sc1C(=O)N1CC[C@@H](C(=O)N2CCC(O)(Cn3cnc(Oc4ccc(F)cc4)c(N)c3=O)CC2)[C@H](c2ccccc2)C1 [Example 48, 5-amino-6-(4-fluorophenoxy)-3-[(1-((3R,4R)-1-[2-(4-fluorophenyl)-4-methyl-1,3-thiazole-5-carbonyl]-3-phenylpiperidine-4-carbonyl}-4-hydroxypiperidin-4-yl)methyl]pyrimidin-4(3H)-one] | 5.2 | 3 |  |
| Nc1c(Oc2ccc(F)cc2)ncn(CC2(O)CCN(C(=O)[C@@H]3CCN(C(=O)Nc4cccc(C(F)(F)F)c4)C[C@H]3c3ccccc3)CC2)c1=O [Example 81, (3R,4R)-4-(4-{15-amino-4-(4-fluorophenoxy)-6-oxopyrimidin-[(6H)-yl]methyl}-4-hydroxypiperidine-1-carbonyl)-3-phenyl-N-[3-(trifluoromethyl)phenyl]piperidine-1-carboxamide] | 44 | 5.1 |  |
| Cc1nc(-c2ccccc2)sc1C(=O)N1CC[C@@H](C(=O)N2CCC(O)(Cn3cnc(Oc4ccc(F)cc4)c(N)c3=O)CC2)[C@H](c2ccccc2)C1 [Example 66, 5-amino-6-(4-fluorophenoxy)-3-({4-hydroxy-1-[(3R,4R)-1-(4-methyl-2-phenyl-1,3-thiazole-5-carbonyl)-3-phenylpiperidine-4-carbonyl]piperidin-4-yl}methyl)pyrimidin-4(3H)-one] | 6.5 | 4.5 |  |
| Nc1c(Oc2ccc(F)cc2)ncn(C[C@@]2(O)CCN(C(=O)[C@@H]3CCN(Cc4cnccn4)C[C@H]3c3ccccc3)CC2(F)F)c1=O [Example 202, 5-amino-3-[[(4S)-3,3-difluoro-4-hydroxy-1-[(3R,4R)-3-phenyl-1-(pyrazin-2-ylmethyl)piperidine-4-carbonyl]-4-piperidyl]methyl]-6-(4-fluorophenoxy)pyrimidin-4-one] | 21.8 | 11.7 |  |
| Cc1ccc(-c2cc(F)cc(C(=O)N3CC[C@@H](C(=O)N4CCC(O)(Cn5cnc(Oc6ccc(F)cc6)c(N)c5=O)CC4)[C@H](c4ccccc4)C3)c2)cn1 [Example 121] | 4.68 | 6.4 |  |
| Nc1c(Oc2ccc(F)cc2)ncn(CC2(O)CCN(C(=O)[C@@H]3CCN(C(=O)c4ccccc4)C[C@H]3c3ccccc3)CC2)c1=O [Example 36] | 15.1 | 8.93 |  |
| Cc1nc(-c2ccc(C(F)(F)F)nc2)sc1C(=O)N1CC[C@@H](C(=O)N2CCC(O)(Cn3cnc(Oc4cccc(C(F)(F)F)c4)c(N)c3=O)CC2)[C@H](c2ccccc2)C1 [Example 125, 5-amino-3-[[4-hydroxy-1-[(3R,4R)-1-[4-methyl-2-[6-(trifluoromethyl)-3-pyridyl]thiazole-5-carbonyl]-3-phenyl-piperidine-4-carbonyl]-4-piperidyl]methyl]-6-[3-(trifluoromethyl)phenoxy]pyrimidin-4-one] | 7.98 | 26.6 |  |
| Nc1c(Oc2ccc(F)cc2)ncn(CC2(O)CCN(C(=O)[C@@H]3CCN(C(=O)C(F)(F)c4ccccc4)C[C@H]3c3ccccc3)CC2)c1=O [Example 75, 5-amino-3-[[1-[(3R,4R)-1-(2,2-difluoro-2-phenyl-acetyl)-3-phenyl-piperidine-4-carbonyl]-4-hydroxy-4-piperidyl]methyl]-6-(4-fluorophenoxy)pyrimidin-4-one] | 39 | 43 |  |
| Cc1nccc(CN2CC[C@@H](C(=O)N3CC[C@](O)(Cn4cnc(Oc5ccc(Cl)cc5)c(N)c4=O)C(F)(F)C3)[C@H](c3ccccc3)C2)n1 [Example 168] | 38.5 | 13.8 |  |
| Nc1c(Oc2ccc(F)cc2)ncn(C[C@@]2(O)CCN(C(=O)[C@@H]3CCN(Cc4ccccc4F)C[C@H]3c3ccccc3)CC2(F)F)c1=O [Example 54, 5-amino-3-{[(4S)-3,3-difluoro-1-((3R,4R)-1-[(2-fluorophenyl)methyl]-3-phenylpiperidine-4-carbonyl}-4-hydroxypiperidin-4-yl}methyl)-6-(4-fluorophenoxy)pyrimidin-4(3H)-one] | 13 | 9.1 |  |
| 5-amino-3-[(3SR,4SR)-3-fluoro-4-hydroxy-1-(3R,4R)-1-[4-methyl-2-(6-methyl-3-pyridyl)thiazole-5-carbonyl]-3-phenyl-piperidine-4-carbonyl]-4-piperidyl]methyl]-6-(4-fluorophenoxy)pyrimidin-4-one and 5-amino-3-[[(3RS,4RS)-3-fluoro-4-hydroxy-1-[(3R,4R)-1-[4-methyl-2-(6-methyl-3-pyridyl)thiazole-5-carbonyl]-3-phenyl-piperidine-4-carbonyl]-4-piperidyl]methyl]-6-(4-fluorophenoxy)pyrimidin-4-one [Example 198] | 10.7 |  | 3.14 |
| Cc1ccc(-c2nc(C)c(C(=O)N3CC[C@@H](C(=O)N4CCC(O)(Cn5cnc(Oc6ccc(CN)cc6)c(N)c5=O)CC4)[C@H](c4ccccc4)C3)s2)cn1 [Example 131] | 0.064 | 5.3 |  |
| Cc1nc(C2CCOCC2)sc1C(=O)N1CC[C@@H](C(=O)N2CCC(O)(Cn3cnc(Oc4ccc(F)cc4)c(N)c3=O)CC2)[C@H](c2ccccc2)C1 [Example 191, 5-amino-6-(4-fluorophenoxy)-3-[[4-hydroxy-1-[(3R,4R)-1-(4-methyl-2-tetrahydropyran-4-yl-thiazole-5-carbonyl)-3-phenyl-piperidine-4-carbonyl]-4-piperidyl]methyl]pyrimidin-4-one] | 17.7 | 20.1 |  |
| Cc1nc(Br)sc1C(=O)N1CC[C@@H](C(=O)N2CC[C@](O)(Cn3cnc(Oc4ccc(F)cc4)c(N)c3=O)C(F)(F)C2)[C@H](c2ccccc2)C1 [Example 41, 5-amino-3-(((4S)-1-[(3R,4R)-1-(2-bromo-4-methyl-1,3-thiazole-5-carbonyl)-3-phenylpiperidine-4-carbonyl]-3,3-difluoro-4-hydroxypiperidin-4-yl}methyl)-6-(4-fluorophenoxy)pyrimidin-4(3H)-one] | 6.7 | 2.5 |  |
| Nc1c(Oc2ccc(F)cc2)ncn(CC2(O)CCN(C(=O)[C@@H]3CCN(C4(c5ccccc5Cl)COC4)C[C@H]3c3ccccc3)CC2)c1=O [Example 140, 5-amino-3-[[1-((3R,4R)-1-[3-(2-chlorophenyl)oxetan-3-yl]-3-phenyl-piperidine-4-carbonyl]-4-hydroxy-4-piperidyl]methyl]-6-(4-fluorophenoxy)pyrimidin-4-one] | 12 | 20 |  |
